In publication PMC6132687, “Stem cells are the most sensitive screening tool to identify toxicity of GATA4-targeted novel small-molecule compounds” (Archives of Toxicology, 2018):

Key:
[1] = system: mESC derivatives from day 5 embryoid bodies (D5EBs); assay: MTT assay in D5EBs; assay type: cell-based, mouse; settings: 24 h
Method: (§1) The cells were exposed to the test compounds for 24 h and cytotoxicity was quantified with MTT and LDH assays as described previously (Talman et al. [2011]). For the determination of cell membrane integrity, 50 µl of medium from each well was transferred onto a new 96-well plate followed by addition of 50 µl of substrate solution containing 1.3 mM β-nicotinamide adenine dinucleotide, 660 µM iodonitrotetrazolium, 54 mM L(+)-lactic acid, 280 µM phenazine methosulphate and 0.2 M Tris–HCl (pH 8.0). After a 30-min incubation, the reaction was stopped by adding 50 µl of 1 M acetic acid to each well and absorbance was measured at 490 nm using Victor2 plate reader (PerkinElmer, Turku, Finland). Spontaneous LDH release was measured from untreated cells, maximal LDH release from cells lysed with 0.9% Triton X-100 and background absorbance was measured from wells without cells. After background extraction, cytotoxicity was calculated as follows: cytotoxicity (%) = [(sample − spontaneous LDH release)/(maximal LDH release − spontaneous LDH release)] × 100. For quantification of metabolic activity, 3-(4,5-dimethylthiazol-2-yl)-2,5-diphenyltetrazolium bromide (MTT) was added to the cells at a final concentration of 0.5 mg/ml followed by 2 h incubation in cell culture conditions. The medium was then aspirated and formazan crystals were solubilized in DMSO. Absorbance was measured at 550 nm and absorbance at 650 nm was subtracted as background.
Mouse embryonic stem cells (mESCs), embryoid bodies (EBs), and primary mouse embryonic fibroblasts (MEFs) were used for toxicity experiments. E14 mESCs were cultured in feeder-free conditions on plates coated with 0.1% gelatin in DMEM with 15% FBS, GlutaMax, MEM non-essential amino acids, 2-mercaptoethanol, and leukemia inhibitory factor (LIF). For toxicity assays, the cells were dissociated with TrypLe and plated at 5,000 cells/well in gelatin-coated 96-well plates 24 hours prior to compound exposures. To induce differentiation of mESCs, cells were plated on day 0 in 20 µl hanging drops at 25,000 cells/ml in inverted V-bottom plates in DMEM with 20% FBS and with all above supplements except LIF. On day 2 medium was added to EBs, and the EBs were dissociated with TrypLe and plated at 5,000 cells/well in gelatin-coated 96-well plates on day 5 and exposed to test compounds 24 later. Primary MEFs were cultured on 0.1% gelatin-coated plates in DMEM with 10% […]
1640 without glucose with B-27 supplement in order to purify cardiomyocytes. From day 15 onwards the cells were maintained in RPMI 1640 supplemented with B-27 (RB+ins). Beating hiPSC-CMs were dissociated between days 15 and 22 by incubating them in cell dissociation solution containing 40% enzyme-free cell dissociation buffer, 40% RPMI 1640 and 20% trypsin-EDTA (final trypsin concentration 0.01%) for 7–8 min, whereafter the cells were collected and trypsin was inactivated in RB+ins supplemented with 10% FBS. After centrifugation the cells were suspended in RB+ins with 10% FBS containing 10 µM ROCK inhibitor and seeded at 15,000 cells/well (cytotoxicity assays) or 20,000 cells/well (high content analysis) in gelatin-coated 96-well plates. The cells were let to attach for 2 days at 37 °C in standard conditions, whereafter the compounds were added in RB+ins. In general, the differentiation yielded an almost pure (>95%) cardiomyocyte culture.
Syntheses and characterization of compounds
Materials and general procedures. […]

[2] = system: stem cell and progenitor cell viability; assay: Toxicity classification from MTT screening across cell types; settings: based on effects on stem cell and progenitor cell viability
Method: as §1
When comparing the effects of different compounds within each individual cell type, the compounds can be grouped into two main classes: toxic (3i-1000, 3i-1120, 3i-1148 and 3i-1229) and non-toxic (3i-1047, 3i-1051, 3i-1165, and 3i-1228) compounds. Based on the hiPSC toxicity data, 3i-1148 can be considered as the most toxic compound with an IC50 of 0.30 µM (Fig. 5b).

Structure (SMILES) | reduction in metabolic activity ([1]; at ≥ 10 µM) | toxicity class (toxic / non-toxic) [2] | reduction in viability ([1]; 30 µM) | sensitivity of cell type to compound (viability) [1]
CCN(CC)c1ccc(NC(=O)c2c(-c3ccccc3)noc2C)cc1 [3i-1000] | moderate, but not statistically significant | toxic | – | –
CCN(CC)c1ccc(NC(=O)c2c(C)noc2-c2cc(C)on2)cc1 [3i-1047] | – | non-toxic | 38–45% | –
CCC(=O)N(Cc1ccc(N(CC)CC)cc1)c1c(-c2ccccc2)noc1C [3i-1120] | – | toxic | – | sensitive
CCN(CC)c1ccc(NC(=O)c2cc(C)oc2-c2ccccc2)cc1 [3i-1148] | – | toxic | – | sensitive
COc1ccc(-c2cc(N)nn2C(=O)c2c(-c3ccccc3)noc2C)cc1 [3i-1229] | – | toxic | – | sensitive
